# Results reported in patent publication US8198295B2, “Benzonaphthyridines” (Nycomed GmbH, priority 2002, dated 2012).
# Where a name gives a salt, the structure may show the parent alone. Read-outs that look alike come from different tables or passages of the source.
# What was measured:
# [1] = molecular target: PDE4 (cAMP-specific), cytosol of human polymorphonuclear leukocytes (PMNL); experiment: Inhibition of PDE isoenzymes: PDE4; format: biochemical; details: cAMP as substrate, motapizone (1 μM) present
# Procedure: (§1) The PDE activity was determined according to Thompson et al. (Adv Cycl Nucl Res 10: 69-92, 1979) with some modifications (Bauer and Schwabe, Naunyn-Schmiedeberg's Arch Pharmacol 311: 193-198, 1980). The test samples contained 20 mM Tris (pH 7.4), 5 mM MgCl2, 0.5 μM CAMP or CGMP, [^3H]cAMP or [^3H]cGMP (about 30 000 cpm/sample), the PDE isoenzyme-specific additives described in greater detail below, the Indicated concentrations of inhibitor and an aliquot of the enzyme solution in a total sample volume of 200 μl. Dilution series of the compounds according to the invention were prepared in DMSO and further diluted in the samples [1:100 (v/v)], to give the desired end concentration of the inhibitors at a DMSO concentration of 1% (vN), which for its part has only a minute effect on PDE activity.
# (§2) After preincubation at 37° C. for 5 minutes, the reaction was started by addition of the substrate (CAMP or cGMP). The samples were incubated at 37° C. for a further 15 min. The reaction was terminated by addition of 50 μl 0.2 N HCl. After cooling on ice for 10 minutes and addition of 25 μg 5′-nucleotidase (snake venom from Crotalus atrox), the mixture was again incubated at 37° C. for 10 min and the samples were then applied to QAE Sephadex A-25 columns (sample volume 1 ml). The columns were eluted with 2 ml of 30 mM ammonium formate (pH 6.0). The radioactivity of the eluate was measured and corrected by the corresponding blank values (measured in the presence of denatured protein); the blank values were less than 5% of the total radioactivity. In no case did the proportion of hydrolyzed nucleotide exceed 30% of the original substrate concentration.
# PDE4 (cAMP-specific) was investigated in the cytosol of human polymorphonuclear leukocytes (PMNL) [isolated from leukocyte concentrates, see Schudt et al., Arch Pharmacol 1991: 344, 682-690] using CAMP as substrate. The PDE3 inhibitor motapizone (1 μM) was used to suppress the PDE3 activity emanating from contaminated platelets.
# (§3) The IC50 values were determined from the concentration-inhibition curves by nonlinear regression.
# [2] = molecular target: T1, PDE3 (cGMP-inhibited), homogenates of human platelets (Homo sapiens, UniProt Q14432); experiment: Inhibition of PDE isoenzymes: PDE3; format: biochemical
# T1 construct: from tissue; host or cells: homogenates of human platelets
# T1 sequence (Q14432 whole entry): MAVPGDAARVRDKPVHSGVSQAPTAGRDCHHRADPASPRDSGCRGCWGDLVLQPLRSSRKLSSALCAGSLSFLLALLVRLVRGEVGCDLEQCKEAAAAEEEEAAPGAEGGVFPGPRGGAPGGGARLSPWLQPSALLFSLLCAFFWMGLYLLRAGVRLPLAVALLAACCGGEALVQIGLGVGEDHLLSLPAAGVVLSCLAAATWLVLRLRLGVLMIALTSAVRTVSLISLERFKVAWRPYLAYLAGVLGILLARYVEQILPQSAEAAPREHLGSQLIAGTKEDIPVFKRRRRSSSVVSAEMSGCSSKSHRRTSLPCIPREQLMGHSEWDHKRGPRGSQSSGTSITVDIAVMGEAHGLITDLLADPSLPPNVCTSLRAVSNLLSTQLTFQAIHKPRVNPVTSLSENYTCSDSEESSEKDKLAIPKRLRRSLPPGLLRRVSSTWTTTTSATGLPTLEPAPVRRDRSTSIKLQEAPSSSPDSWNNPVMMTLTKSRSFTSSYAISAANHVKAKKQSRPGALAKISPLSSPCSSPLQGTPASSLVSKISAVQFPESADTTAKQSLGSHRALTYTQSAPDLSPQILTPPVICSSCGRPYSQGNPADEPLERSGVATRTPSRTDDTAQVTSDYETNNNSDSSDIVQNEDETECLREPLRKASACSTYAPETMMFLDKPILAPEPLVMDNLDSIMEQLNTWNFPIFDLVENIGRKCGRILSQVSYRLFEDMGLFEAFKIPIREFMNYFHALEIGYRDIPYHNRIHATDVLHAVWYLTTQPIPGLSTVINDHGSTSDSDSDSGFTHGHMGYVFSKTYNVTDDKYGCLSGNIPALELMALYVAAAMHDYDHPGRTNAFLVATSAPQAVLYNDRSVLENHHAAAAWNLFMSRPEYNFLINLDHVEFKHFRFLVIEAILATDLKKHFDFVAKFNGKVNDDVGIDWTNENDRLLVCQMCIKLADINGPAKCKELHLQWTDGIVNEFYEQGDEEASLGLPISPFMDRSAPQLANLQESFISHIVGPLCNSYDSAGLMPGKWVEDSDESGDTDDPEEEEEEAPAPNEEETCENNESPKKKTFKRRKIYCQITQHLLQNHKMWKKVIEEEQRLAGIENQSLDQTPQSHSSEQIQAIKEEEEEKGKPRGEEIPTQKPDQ
# Procedure: as §1, §2
# PDE3 (cGMP-inhibited) was investigated in homogenates of human platelets (see Schudt et al., Biochem Pharmacol 1991: 42, 153-162) using CAMP or cGMP as substrate.
# as §3
# [3] = homogenates of human platelets, cAMP or cGMP as substrate, read-out: PDE3 [−log IC50, mol/l] (converted)
Compound,"PDE4 [−log IC50, mol/l] [1]",IC50 [2] [nM],"IC50 [2, 3] [nM]"
"CCOc1cc2c(cc1OC)C(c1ccc(C(=O)N(C(C)C)[C@@H](C)COC(=O)Cc3ccccc3)cc1)=N[C@@H]1CCN(C)C[C@H]21 [Compound 1, Phenyl-acetic acid (S)-2-({1-[4-((4aR,10bS)-9-ethoxy-8-methoxy-2-methyl-1,2,3,4a,10b-hexahydro-benzo[c][1,6]naphthyridin-6-yl)-phenyl]-methanoyl}-isopropyl-amino)-propyl ester]","9.8 −log IC50, mol/l",50.1,–
CCOc1cc2c(cc1OC)C(c1ccc(C(=O)N(C(C)C)[C@@H](C)COC(=O)c3ccccc3)cc1)=N[C@@H]1CCN(C)C[C@H]21 [Compound 2],"9 −log IC50, mol/l",–,25.1
"CCOc1cc2c(cc1OC)C(c1ccc(C(=O)N(C(C)C)[C@@H](C)COC(=O)c3ccc(OC)c(OC)c3)cc1)=N[C@@H]1CCN(C)C[C@H]21 [Compound 3, 3,4-Dimethoxy-benzoic acid(S)2-({1-[4-((4aR,10bS)-9-ethoxy-8-methoxy-2-methyl-1,2,3,4,4a,10b-hexahdro-benzo[c][1,6]naphthyridin-6-yl)-phenyl]-methanoyl}-isopropyl-amino)-propyl ester]","9.4 −log IC50, mol/l",–,31.6
CCOc1cc2c(cc1OC)C(c1ccc(C(=O)N(C(C)C)[C@@H](C)COC(=O)c3cc(OC)cc(OC)c3)cc1)=N[C@@H]1CCN(C)C[C@H]21 [Compound 4],"9.3 −log IC50, mol/l",–,39.8
"CCOc1cc2c(cc1OC)C(c1ccc(C(=O)N(C(C)C)[C@@H](C)COC(C)=O)cc1)=N[C@@H]1CCN(C)C[C@H]21 [Compound 5, Acetic acid (S-2-({1-[4-((4aR,10bS)-9-ethoxy-8-methoxy-2-methyl-1,2,3,4,4a,10b-hexahydro-benzo[c][1,6]naphthyyrdin-6-yl)-phenyl]-methanoyl}-isopropyl-amino)-propyl esterdihydrochloride]","9.2 −log IC50, mol/l",–,79.4
"CCOc1cc2c(cc1OC)C(c1ccc(C(=O)N(C(C)C)C(C)CCOC(=O)c3ccccc3)cc1)=N[C@@H]1CCN(C)C[C@H]21 (stereo partly drawn) [Compound 6, Benzoic acid 3-({1-[4-((4aR,10bS)-9-ethoxy-8-methoxy-2-methyl-1,2,3,4,4a,10b-hexahydro-benzo[c][1,6]naphthyridin-6-yl)-phenyl]-methanoyl}-isopropyl-amino)-butyl ester]","9.2 −log IC50, mol/l",–,100
"CCOc1cc2c(cc1OC)C(c1ccc(C(=O)N(C(C)C)C(C)CCOC(=O)Cc3ccccc3)cc1)=N[C@@H]1CCN(C)C[C@H]21 (stereo partly drawn) [Compound 7, Phenyl-acetic acid 3-({1-[4((4aR,10bS)-9-ethoxy-8-methoxy-2-methyl-1,2,3,4,4a,10b-hexahydro-benzo[c][1,6]naphthyridin-6-yl)-phenyl]-methanoyl}-isopropyl-amino)-butyl ester]","9.6 −log IC50, mol/l",31.6,–
"CCOc1cc2c(cc1OC)C(c1ccc(C(=O)N(C(C)C)C(C)CCOC(=O)Cc3ccc(OC)c(OC)c3)cc1)=N[C@@H]1CCN(C)C[C@H]21 (stereo partly drawn) [Compound 8, (3.4-Dimethoxy-phenyl)-acetic acid 3-({1-[4-((4aR,10bS)-9-ethoxy-8-methoxy-2-methyl-1,2,3,4,4a.10b-hexahydro-benzo[c][1,6]naphthyridin-6-yl)-phenyl]-methanoyl}-isopropyl-amino)-butyl ester]","9.6 −log IC50, mol/l",–,50.1
CCOc1cc2c(cc1OC)C(c1ccc(C(=O)N(C(C)C)[C@@H](C)CO)cc1)=N[C@@H]1CCN(C)C[C@H]21 [Compound 11],"8.9 −log IC50, mol/l",–,79.4
CCOc1cc2c(cc1OC)C(c1ccc(C(=O)N(C(C)C)[C@H](C)CO)cc1)=N[C@@H]1CCN(C)C[C@H]21 [Compound 12],"8.8 −log IC50, mol/l",–,79.4
